# Entries after “also recorded” stand apart in the source; their conditions may differ. Read-outs that look alike come from different tables or passages of the source.
# Legend:
# [1] = biological target: CB2R; details: cited from earlier work
# [2] = biological target: T1, human CB1 receptor (Homo sapiens, UniProt P21554); assay: biochemical; format: binding
# T1 construct: expressed in transfected cells; membranes
# [3] = biological target: T2, human CB2 receptor (Homo sapiens, UniProt P34972); assay: [3H]-WIN-55,212-2 competition binding, CHO membranes
# T2 construct: expressed in transfected cells; membranes
# T2 sequence (P34972 whole entry): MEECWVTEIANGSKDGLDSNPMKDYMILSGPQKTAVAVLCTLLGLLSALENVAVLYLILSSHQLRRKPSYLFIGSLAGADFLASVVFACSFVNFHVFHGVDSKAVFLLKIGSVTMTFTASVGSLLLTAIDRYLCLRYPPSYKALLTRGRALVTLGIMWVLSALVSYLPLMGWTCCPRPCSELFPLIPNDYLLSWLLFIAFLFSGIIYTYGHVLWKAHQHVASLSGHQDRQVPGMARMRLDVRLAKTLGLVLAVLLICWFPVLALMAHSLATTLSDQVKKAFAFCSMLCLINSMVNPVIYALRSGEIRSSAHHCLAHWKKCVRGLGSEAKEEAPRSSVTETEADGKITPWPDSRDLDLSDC
# [4] = test system: T3, CB1R and CB2R (CB1–CB2 heteroreceptor complexes); assay: ERK1/2 phosphorylation in HEK-293T cells co-expressing both receptors; format: cell-based, human
# T3 construct: expressed in transfected cells; host or cells: HEK-293T, transient co-transfection (PEI)
# Method: (§1) HEK-293T cells were grown in DMEM medium (Gibco, Paisley, Scotland, United Kingdom) supplemented with 2 mM L-glutamine, 100 U/mL penicillin/streptomycin, MEM Non-Essential Amino Acids Solution (1/100) and 5% (v/v) heat inactivated Foetal Bovine Serum (FBS) (Invitrogen, Paisley, Scotland, United Kingdom). […] Cells were transiently transfected with the PEI (Polyethylenimine, Sigma, St. Louis, MO, United States) method as previously described ([Medrano et al., 2017]; [Navarro et al., 2018b]) and used for functional assays 48 h later (unless otherwise stated).
# To determine ERK1/2 phosphorylation, 50,000 HEK-293T cells/well were plated in transparent Deltalab 96-well microplates and kept at the incubator for 24 h. 2 to 4 h before the experiment, the medium was substituted by serum-starved DMEM medium. Then, cells were pre-treated at 25°C for 10 min with vehicle or CBG in serum-starved DMEM medium and stimulated for an additional 7 min with the specific agonists. Cells were then washed twice with cold PBS before addition of lysis buffer (20 min treatment). 10 μL of each supernatant were placed in white ProxiPlate 384-well microplates and ERK 1/2 phosphorylation was determined using AlphaScreen®SureFire® kit (Perkin Elmer) following the instructions of the supplier and using an EnSpire® Multimode Plate Reader (PerkinElmer, Waltham, MA, United States).
# [5] = test system: macrophages; design: method as in Borrelli et al., 2013; details: ref Borrelli et al., 2013; cited from earlier work
# [6] = test system: PPARγ transcriptional activity; design: method as in Granja et al., 2012; Nadal et al., 2017; details: high concentrations, 10–25 μM range; ref Granja et al., 2012; Nadal et al., 2017; cited from earlier work
# [7] = biological target: T2, human CB2 receptor; assay: [3H]-CP-55940 competition binding, CHO membranes; details: radioligand 0.3 nM [3H]-CP-55940, CHO membranes
# [8] = biological target: CB1R; details: cited from earlier work
# [9] = test system: TRPV1; design: method as in De Petrocellis et al., 2011; details: ref De Petrocellis et al., 2011; read-out: EC50, agonist of TRPV1; cited from earlier work
# [10] = test system: T4, CB1R; assay: Label-free dynamic mass redistribution (DMR) in HEK-293T cells; format: cell-based, human
# T4 construct: expressed in transfected cells; host or cells: HEK-293T, transient transfection (PEI)
# Method: as §1
# (§2) Cell mass redistribution induced upon receptor activation was detected by illuminating the underside of a biosensor with polychromatic light and measuring the changes in the wavelength of the reflected monochromatic light. The magnitude of this wavelength shift (in picometers) is directly proportional to the amount of DMR. HEK-293T cells were seeded in 384-well sensor microplates to obtain 70–80% confluent monolayers constituted by approximately 10,000 cells per well. Previous to the assay, cells were washed twice with assay buffer (HBSS with 20 mM HEPES, pH 7.15) and incubated for 2 h with assay-buffer containing 0.1% DMSO (24°C, 30 μL/well). Hereafter, the sensor plate was scanned and a baseline optical signature was recorded for 10 min before adding 10 μL of CBG for 30 min followed by the addition of 10 μL of specific agonists; all test compounds were dissolved in assay buffer. The cell signaling signature was determined using an EnSpire® Multimode Plate Reader (PerkinElmer, Waltham, MA, United States) by a label-free technology. Then, DMR responses were monitored for at least 5,000 s. Results were analyzed using EnSpire Workstation Software v 4.10.
# [11] = test system: T5, CB2R; assay: as above; format: cell-based, human
# T5 construct: expressed in transfected cells; host or cells: HEK-293T, transient transfection (PEI)
# Method: as §1, §2
# T1 sequence (P21554 whole entry): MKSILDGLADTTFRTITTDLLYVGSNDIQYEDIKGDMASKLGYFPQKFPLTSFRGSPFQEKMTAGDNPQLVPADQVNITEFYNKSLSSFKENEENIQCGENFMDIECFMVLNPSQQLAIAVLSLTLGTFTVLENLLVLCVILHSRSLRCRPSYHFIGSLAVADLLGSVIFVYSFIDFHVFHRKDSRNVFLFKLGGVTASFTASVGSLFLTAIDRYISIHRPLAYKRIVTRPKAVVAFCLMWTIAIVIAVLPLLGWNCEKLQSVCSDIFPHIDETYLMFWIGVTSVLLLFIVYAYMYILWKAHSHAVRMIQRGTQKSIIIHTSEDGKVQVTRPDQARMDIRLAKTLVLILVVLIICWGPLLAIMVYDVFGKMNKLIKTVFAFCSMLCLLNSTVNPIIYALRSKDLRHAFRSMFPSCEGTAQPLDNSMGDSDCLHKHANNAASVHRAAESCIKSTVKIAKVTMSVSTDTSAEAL
structure (smiles),measurement,setting,value
"CCCCCc1cc(O)c(C/C=C(\C)CCC=C(C)C)c(O)c1 [CBG, cannabigerol]",Ki,"[1]; CHO cells expressing the human CB2R, preliminary results, ref Gauson et al., 2007, Pertwee, 2008",300 to 500 nM
same,Ki,"[1]; CHO cells expressing the human receptor, ref Cascio et al., 2010",2600 nM
same,"Displacement of [3H]-WIN-55,212-2 from CB1R",[2],not able to displace the radioligand; also recorded: unable to compete
same,Ki,[2],> 30000 nM
same,Ki,"[3]; radioligand 3 nM [3H]-WIN-55,212-2, CHO membranes, read-out: CB2 – Ki",2660 nM
same,Ki,"[3]; radioligand [3H]-WIN-55,212-2, read-out: Ki, competition of [3H]-WIN-55,212-2 binding to CB2R",2700 nM
same,Effect on agonist actions on ERK1/2 phosphorylation,"[4]; 100 nM CBG pretreatment, cells co-expressing CB1R and CB2R",negligible except for the negative modulation of the ACEA effect on ERK1/2 phosphorylation
same,Effect on ERK1/2 phosphorylation,"[4]; CBG alone, dose-effect, cells expressing CB1R and CB2R",negative cross-talk was still evident
same,Nitrite release from macrophages after LPS stimulation,[5],reduce
same,Effect on PPARγ transcriptional activity,[6],may enhance the PPARγ transcriptional activity
same,Ki,[7],1220 nM
same,Ki,"[8]; membranes from mice brain, preliminary results, ref Gauson et al., 2007, Pertwee, 2008",300 to 500 nM
same,Ki,"[8]; mouse brain membranes, ref Cascio et al., 2010",381 nM
same,EC50,[9],1300 nM
same,Effect on agonist-induced DMR,"[10]; 100 nM or 1 μM CBG, 100 nM AEA or ACEA, CB1R",reduced the effect of the agonists
same,DMR signal,"[10]; CBG alone, 1 nM to 10 μM, CB1R-expressing cells",slight effect
same,Effect on AEA and JWH133 effects on label-free DMR,"[11]; 100 nM or 1 μM CBG pretreatment, 100 nM AEA or JWH133, CB2R",reduced the effects of AEA and JWH133
same,DMR signal,"[11]; CBG alone, 1 nM to 10 μM, CB2R-expressing cells",small and similar to that exerted in CB1R-expressing cells
